In patent US20260365682A1, “MODULATORS OF TNF-ALPHA ACTIVITY” (Forward Therapeutics, Inc., priority 2022, published 2026):

molecular target: T1, TNF-α (Homo sapiens, UniProt P01375); assay: TNF-α Induced HEK Blue Cellular Assay (secreted alkaline phosphatase expression, QUANTI-Blue); format: cell-based; details: HEK Blue TNFα reporter cells; TNF-α 100 μg/ml; 24 hrs at 37° C.; inhibition of secreted alkaline phosphatase; read-out: IC50 value
T1 construct: purchased R&D 210-TA-020/CF
How it was run: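 HEK Blue TNFα reporter cells (10,000/well) in DMEM with 10% FBS received compound ([…] to 0.5 nM final) and TNF-α at […] final for 24 h at 37° C. Secreted alkaline phosphatase read with QUANTI-Blue at 620 nm. IC50 came from a 4-parameter logistic fit after normalising to unstimulated and stimulated DMSO controls.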

T1 sequence (P01375 77-233 limits assumed): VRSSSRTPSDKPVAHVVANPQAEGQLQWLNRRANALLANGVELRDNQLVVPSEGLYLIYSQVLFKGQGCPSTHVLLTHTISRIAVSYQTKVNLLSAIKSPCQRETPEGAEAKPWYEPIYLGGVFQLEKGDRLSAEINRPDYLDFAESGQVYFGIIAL

[2H]C([2H])([2H])N1C(=O)c2cccc(OC(F)F)c2[C@H]2C[C@@H]1c1nc3ccc(C#Cc4cnc(P(C)(C)=O)nc4)cc3n12 [Example 100, (7R,14R)-1-(difluoromethoxy)-11-((2-(dimethylphosphoryl)pyrimidin-5-yl)ethynyl)-6-(methyl-d3)-6,7-dihydro-7,14-methanobenzo[f]benzo[4,5]imidazo[1,2-a][1,4]diazocin-5(14H)-one] and [2H]C([2H])([2H])N1C(=O)c2cccc(OC(F)F)c2[C@H]2C[C@@H]1c1nc3ccc(C#Cc4cnoc4)cc3n12 [Example 41, (7R,14R)-1-(difluoromethoxy)-11-(isoxazol-4-ylethynyl)-6-(methyl-d3)-6,7-dihydro-7,14-methanobenzo[f]benzo[4,5]imidazo[1,2-a][1,4]diazocin-5(14H)-one] cannot be ordered by IC50: under 100 nM for the first, under 100 nM for the second.

First: [2H]C([2H])([2H])N1C(=O)c2cccc(OC(F)F)c2[C@H]2C[C@@H]1c1nc3ccc(C#CC4(C)CCN(C(=O)C(C)(C)O)C4)cc3n12 (stereo partly drawn) [Example 192, (7R,14R)-1-(difluoromethoxy)-11-((1-(2-hydroxy-2-methylpropanoyl)-3-methylpyrrolidin-3-yl)ethynyl)-6-(methyl-d3)-6,7-dihydro-7,14-methanobenzo[f]benzo[4,5]imidazo[1,2-a][1,4]diazocin-5(14H)-one]
Second: [2H]C([2H])([2H])N1C(=O)c2cccc(OC(F)F)c2[C@H]2C[C@@H]1c1nc3ccc(C#CC4(C)CCCN(C(C)=O)C4)cc3n12 (stereo partly drawn) [Example 225, (7R,14R)-11-((1-acetyl-3-methylpiperidin-3-yl)ethynyl)-1-(difluoromethoxy)-6-(methyl-d3)-6,7-dihydro-7,14-methanobenzo[f]benzo[4,5]imidazo[1,2-a][1,4]diazocin-5(14H)-one]
The IC50 of the first is higher: 10000 to 30000 nM for the first, under 100 nM for the second.

[2H]C([2H])([2H])N1C(=O)c2cccc(OC(F)F)c2[C@H]2C[C@@H]1c1nc3ccc(C#CCOCC)cc3n12 [Example 43, (7R,14R)-1-(difluoromethoxy)-11-(3-ethoxyprop-1-yn-1-yl)-6-(methyl-d3)-6,7-dihydro-7,14-methanobenzo[f]benzo[4,5]imidazo[1,2-a][1,4]diazocin-5(14H)-one] and [2H]C([2H])([2H])N1C(=O)c2cccc(OC(F)F)c2[C@H]2C[C@@H]1c1nc3ccc(C#CCOCC(F)(F)F)cc3n12 [Example 160, (7R,14R)-1-(difluoromethoxy)-6-(methyl-d3)-11-(3-(2,2,2-trifluoroethoxy)prop-1-yn-1-yl)-6,7-dihydro-7,14-methanobenzo[f]benzo[4,5]imidazo[1,2-a][1,4]diazocin-5(14H)-one] cannot be ordered by IC50: under 100 nM for the first, under 100 nM for the second.

First: [2H]C([2H])([2H])N1C(=O)c2cccc(OC(F)F)c2[C@H]2C[C@@H]1c1nc3ccc(C#CCN(C)CC)cc3n12 [Example 67, (7R,14R)-1-(difluoromethoxy)-11-(3-(ethyl(methyl)amino)prop-1-yn-1-yl)-6-(methyl-d3)-6,7-dihydro-7,14-methanobenzo[f]benzo[4,5]imidazo[1,2-a][1,4]diazocin-5(14H)-one]
Second: [2H]C([2H])([2H])N1C(=O)c2cccc(OC(F)F)c2[C@H]2C[C@@H]1c1nc3ccc(C#C[C@@H](C)NCC)cc3n12 [Example 54, (7R,14R)-1-(difluoromethoxy)-11-((R)-3-(ethylamino)but-1-yn-1-yl)-6-(methyl-d3)-6,7-dihydro-7,14-methanobenzo[f]benzo[4,5]imidazo[1,2-a][1,4]diazocin-5(14H)-one]
The IC50 of the first is lower: 100 to 1000 nM for the first, 10000 to 30000 nM for the second.

First: [2H]C([2H])([2H])N1C(=O)c2cccc(OC(F)F)c2[C@H]2C[C@@H]1c1nc3ccc(C#CC4(O)CCC4)cc3n12 [Example 35, (7R,14R)-1-(difluoromethoxy)-11-((1-hydroxycyclobutyl)ethynyl)-6-(methyl-d3)-6,7-dihydro-7,14-methanobenzo[f]benzo[4,5]imidazo[1,2-a][1,4]diazocin-5(14H)-one]
Second: [2H]C([2H])([2H])N1C(=O)c2cccc(OC(F)F)c2[C@H]2C[C@@H]1c1nc3ccc(C#CC4CC(O)C4)cc3n12 (stereo partly drawn) [Example 110, (7R,14R)-1-(difluoromethoxy)-11-((3-hydroxycyclobutyl)ethynyl)-6-(methyl-d3)-6,7-dihydro-7,14-methanobenzo[f]benzo[4,5]imidazo[1,2-a][1,4]diazocin-5(14H)-one]
The IC50 of the first is higher: 10000 to 30000 nM for the first, under 100 nM for the second.

First: [2H]C([2H])([2H])N1C(=O)c2cccc(OC(F)F)c2[C@H]2C[C@@H]1c1nc3ccc(C#CC4CN(C(=O)C(C)(C)C#N)C4)cc3n12 [Example 193, 3-(3-(((7R,14R)-1-(difluoromethoxy)-6-(methyl-d3)-5-oxo-5,6,7,14-tetrahydro-7,14-methanobenzo[f]benzo[4,5]imidazo[1,2-a][1,4]diazocin-11-yl)ethynyl)azetidin-1-yl)-2,2-dimethyl-3-oxopropanenitrile]
Second: [2H]C([2H])([2H])N1C(=O)c2cccc(OC(F)F)c2[C@H]2C[C@@H]1c1nc3ccc(C#CC4CN(C(=O)C5CC5(F)F)C4)cc3n12 (stereo partly drawn) [Example 194, (7R,14R)-11-((1-(2,2-difluorocyclopropane-1-carbonyl)azetidin-3-yl)ethynyl)-1-(difluoromethoxy)-6-(methyl-d3)-6,7-dihydro-7,14-methanobenzo[f]benzo[4,5]imidazo[1,2-a][1,4]diazocin-5(14H)-one]
The IC50 of the first is lower: 100 to 1000 nM for the first, 10000 to 30000 nM for the second.

[2H]C([2H])([2H])N1C(=O)c2cccc(OC(F)F)c2[C@H]2C[C@@H]1c1nc3ccc(C#CCNC(=O)C4CC4)cc3n12 [Example 171, N-(3-((7R,14R)-1-(difluoromethoxy)-6-(methyl-d3)-5-oxo-5,6,7,14-tetrahydro-7,14-methanobenzo[f]benzo[4,5]imidazo[1,2-a][1,4]diazocin-11-yl)prop-2-yn-1-yl)cyclopropanecarboxamide] and [2H]C([2H])([2H])N1C(=O)c2cccc(OC(F)F)c2[C@H]2C[C@@H]1c1nc3ccc(C#CCCCC(=O)O)cc3n12 [Example 98, 6-((7R,14R)-1-(difluoromethoxy)-6-(methyl-d3)-5-oxo-5,6,7,14-tetrahydro-7,14-methanobenzo[f]benzo[4,5]imidazo[1,2-a][1,4]diazocin-11-yl)hex-5-ynoic Acid] cannot be ordered by IC50: under 100 nM for the first, under 100 nM for the second.

First: [2H]C([2H])([2H])N1C(=O)c2cccc(OC(F)F)c2[C@H]2C[C@@H]1c1nc3ccc(C#CC4(C)CCN(C(=O)C5CC5)C4)cc3n12 (stereo partly drawn) [Example 189, (7R,14R)-11-((1-(cyclopropanecarbonyl)-3-methylpyrrolidin-3-yl)ethynyl)-1-(difluoromethoxy)-6-(methyl-d3)-6,7-dihydro-7,14-methanobenzo[f]benzo[4,5]imidazo[1,2-a][1,4]diazocin-5(14H)-one]
Second: [2H]C([2H])([2H])N1C(=O)c2cccc(OC(F)F)c2[C@H]2C[C@@H]1c1nc3ccc(C#CC4CCCCO4)cc3n12 (stereo partly drawn) [Example 49, (7R,14R)-1-(difluoromethoxy)-6-(methyl-d3)-11-((tetrahydro-2H-pyran-2-yl)ethynyl)-6,7-dihydro-7,14-methanobenzo[f]benzo[4,5]imidazo[1,2-a][1,4]diazocin-5(14H)-one]
The IC50 of the first is higher: 10000 to 30000 nM for the first, 100 to 1000 nM for the second. The second is the more potent here.

First: [2H]C([2H])([2H])N1C(=O)c2cccc(OC(F)F)c2[C@H]2C[C@@H]1c1nc3ccc(C#CCOC(C)CO)cc3n12 (stereo partly drawn) [Example 72, (7R,14R)-1-(difluoromethoxy)-11-(3-((1-hydroxypropan-2-yl)oxy)prop-1-yn-1-yl)-6-(methyl-d3)-6,7-dihydro-7,14-methanobenzo[f]benzo[4,5]imidazo[1,2-a][1,4]diazocin-5(14H)-one]
Second: [2H]C([2H])([2H])N1C(=O)c2cccc(OC(F)F)c2[C@H]2C[C@@H]1c1nc3ccc(C#Cc4cnnn4C)cc3n12 [Example 12, (7R,14R)-1-(difluoromethoxy)-6-(methyl-d3)-11-((1-methyl-1H-1,2,3-triazol-5-yl)ethynyl)-6,7-dihydro-7,14-methanobenzo[f]benzo[4,5]imidazo[1,2-a][1,4]diazocin-5(14H)-one]
The IC50 of the first is lower: under 100 nM for the first, 1000 to 10000 nM for the second.

For Cn1nncc1C#Cc1ccc2nc3n(c2c1)[C@@H]1C[C@H]3NC(=O)c2cccc(OC(F)F)c21 [Example 19, (7R,14R)-1-(difluoromethoxy)-11-((1-methyl-1H-1,2,3-triazol-5-yl)ethynyl)-6,7-dihydro-7,14-methanobenzo[f]benzo[4,5]imidazo[1,2-a][1,4]diazocin-5(14H)-one], the IC50 was under 100 nM.

same assay, conditions: IC50 value, HEK Blue TNFα reporter cells; TNF-α 100 μg/ml; 24 hrs at 37° C.; inhibition of secreted alkaline phosphatase

Compared with [2H]C([2H])([2H])N1C(=O)c2cccc(OC(F)F)c2[C@H]2C[C@@H]1c1nc3ccc(C#CC(=O)NCC(F)(F)F)cc3n12 [Example 89, 3-((7R,14R)-1-(difluoromethoxy)-6-(methyl-d3)-5-oxo-5,6,7,14-tetrahydro-7,14-methanobenzo[f]benzo[4,5]imidazo[1,2-a][1,4]diazocin-11-yl)-N-(2,2,2-trifluoroethyl)propiolamide], [2H]C([2H])([2H])N1C(=O)c2cccc(OC(F)F)c2[C@H]2C[C@@H]1c1nc3ccc(C#CCC)cc3n12 [Example 84, (7R,14R)-11-(but-1-yn-1-yl)-1-(difluoromethoxy)-6-(methyl-d3)-6,7-dihydro-7,14-methanobenzo[f]benzo[4,5]imidazo[1,2-a][1,4]diazocin-5(14H)-one] is lower in IC50: 100 to 1000 nM for the first, under 100 nM for the second. The second is the more potent here.

Compared with [2H]C([2H])([2H])N1C(=O)c2cccc(OC(F)F)c2[C@H]2C[C@@H]1c1nc3ccc(C#CCOC4CCC4)cc3n12 [Example 176, (7R,14R)-11-(3-cyclobutoxyprop-1-yn-1-yl)-1-(difluoromethoxy)-6-(methyl-d3)-6,7-dihydro-7,14-methanobenzo[f]benzo[4,5]imidazo[1,2-a][1,4]diazocin-5(14H)-one], [2H]C([2H])([2H])N1C(=O)c2cccc(OC(F)F)c2[C@H]2C[C@@H]1c1nc3ccc(C#CCNC4CC4)cc3n12 [Example 241, (7R,14R)-11-(3-(cyclopropylamino)prop-1-yn-1-yl)-1-(difluoromethoxy)-6-(methyl-d3)-6,7-dihydro-7,14-methanobenzo[f]benzo[4,5]imidazo[1,2-a][1,4]diazocin-5(14H)-one] is lower in IC50: 100 to 1000 nM for the first, under 100 nM for the second. The second is the more potent here.
